Laboratory results: patent US10647713B2 (Nimbus Lakshmi, Inc., priority 2016, dated 2020)

Biological target: human TYK2 (JH2domain-pseudokinase) (Homo sapiens (Human), UniProt P29597)
Assay: TYK2 JH2 Domain Binding Assay (KINOMEscan, DiscoveRx)
Conditions: 11-point dilution, duplicate
How it was run: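 TYK2 JH2 (G556–D888)–NFkB DBD fusion, DNA-tagged, from HEK293 extracts (<0.1 nM) competed against immobilised biotinylated ligand for 1 h at room temperature, 0.9% DMSO. Bead-retained kinase quantified by qPCR; Kd from 11-point 3-fold series (top 30,000 nM, duplicate), Hill fit with slope −1.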

Sequence of human TYK2 (JH2domain-pseudokinase) (P29597 556-888): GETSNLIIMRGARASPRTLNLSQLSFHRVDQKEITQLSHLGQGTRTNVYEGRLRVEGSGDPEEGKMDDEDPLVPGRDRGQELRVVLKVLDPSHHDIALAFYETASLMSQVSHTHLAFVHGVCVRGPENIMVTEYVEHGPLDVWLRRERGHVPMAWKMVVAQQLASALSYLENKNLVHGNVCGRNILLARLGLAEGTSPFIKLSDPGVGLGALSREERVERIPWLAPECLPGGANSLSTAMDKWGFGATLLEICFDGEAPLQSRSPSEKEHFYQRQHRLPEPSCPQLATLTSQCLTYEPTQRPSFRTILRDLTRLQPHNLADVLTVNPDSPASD

**Q.** With Cc1nc2c(Nc3ccc(-c4cn(C)cn4)cc3S(C)(=O)=O)cc(NC(=O)C3CC3(F)F)nc2[nH]1 (stereo not shown) [I-378, N-(7-((4-(1l2-imidazol-4-yl)-2-(methylsulfonyl)phenyl)amino)-2-methyl-3H-imidazo[4,5-b]pyridin-5-yl)-2,2-difluorocyclopropane-1-carboxamide] as the molecule, how does the Kd read?
**A.** The Kd was 0.5 to 1 nM.

**Q.** For Cn1cncc1-c1ccc(Nc2cc(NC(=O)C3CC3(F)F)nc3[nH]c(C(F)F)nc23)c(S(C)(=O)=O)c1 (stereo not shown) [I-379, N-(2-(difluoromethyl)-7-((4-(1-methyl-1H-imidazol-5-yl)-2-(methylsulfonyl)phenyl)amino)-3H-imidazo[4,5-b]pyridin-5-yl)-2,2-difluorocyclopropane-1-carboxamide], which Kd is on record?
**A.** The Kd was 0.1 to 0.5 nM.

**Q.** Which Kd does the source give for CN(c1cc(-c2cncn2C)ccc1Nc1cc(NC(=O)C2CC2(F)F)nc2[nH]c(C(F)F)nc12)S(C)(=O)=O (stereo not shown) [I-380, N-(2-(difluoromethyl)-7-((4-(1-methyl-1H-imidazol-5-yl)-2-(N-methylmethylsulfonamido)phenyl)amino)-3H-imidazo[4,5-b]pyridin-5-yl)-2,2-difluorocyclopropane-1-carboxamide] here?
**A.** The Kd was 0.5 to 1 nM.

**Q.** For Cn1cnc(-c2ccc(Nc3cc(NC(=O)C4CC4(F)F)nc4[nH]c(C(F)F)nc34)c(S(C)(=O)=O)c2)c1 (stereo not shown) [I-381, N-(2-(difluoromethyl)-7-((4-(1-methyl-1H-imidazol-4-yl)-2-(methylsulfonyl)phenyl)amino)-3H-imidazo[4,5-b]pyridin-5-yl)-2,2-difluorocyclopropane-1-carboxamide], which Kd is on record?
**A.** The Kd was 1 to 10 nM.

**Q.** How did the Kd turn out when Cc1nc2c(Nc3ccc(-c4cncn4C)cc3S(C)(=O)=O)cc(NC(=O)C3CC3(F)F)nc2[nH]1 (stereo not shown) [I-382, 2,2-difluoro-N-(2-methyl-7-((4-(1-methyl-1H-imidazol-5-yl)-2-(methylsulfonyl)phenyl)amino)-3H-imidazo[4,5-b]pyridin-5-yl)cyclopropane-1-carboxamide] was run?
**A.** The Kd was 0.1 to 0.5 nM.

**Q.** For COc1cc(Nc2ccc(-c3ccn(C)n3)cc2S(C)(=O)=O)c2nc(C)[nH]c2n1 [I-383, 5-methoxy-2-methyl-N-(4-(1-methyl-1H-pyrazol-3-yl)-2-(methylsulfonyl)phenyl)-3H-imidazo[4,5-b]pyridin-7-amine], which Kd is on record?
**A.** The Kd was > 10 nM.

**Q.** Cc1nc2c(Nc3ccc(-c4cncn4C)cc3N(C)S(C)(=O)=O)cc(NC(=O)C3CC3(F)F)nc2[nH]1 (stereo not shown) [I-384, 2,2-difluoro-N-(2-methyl-7-((4-(1-methyl-1H-imidazol-5-yl)-2-(N-methylmethylsulfonamido)phenyl)amino)-3H-imidazo[4,5-b]pyridin-5-yl)cyclopropane-1-carboxamide] was tested. Which Kd did it give?
**A.** Its Kd is 0.5 to 1 nM.

**Q.** Which Kd does the source give for CN(c1cc(-c2cnn(C)c2)ccc1Nc1cc(NC(=O)C2CC2(F)F)nc2[nH]c(C(F)F)nc12)S(C)(=O)=O (stereo not shown) [I-385, N-(2-(difluoromethyl)-7-((4-(1-methyl-1H-pyrazol-4-yl)-2-(N-methylmethylsulfonamido)phenyl)amino)-3H-imidazo[4,5-b]pyridin-5-yl)-2,2-difluorocyclopropane-1-carboxamide] here?
**A.** Its Kd is 0.5 to 1 nM.

**Q.** How did the Kd turn out when Cn1ccc(-c2ccc(Nc3cc(NC(=O)C4CC4(F)F)nc4[nH]c(C(F)F)nc34)c(S(C)(=O)=O)c2)n1 (stereo not shown) [I-386, N-(2-(difluoromethyl)-7-((4-(1-methyl-1H-pyrazol-3-yl)-2-(methylsulfonyl)phenyl)amino)-3H-imidazo[4,5-b]pyridin-5-yl)-2,2-difluorocyclopropane-1-carboxamide] was run?
**A.** The Kd was 0.5 to 1 nM.

**Q.** For Cc1nc2c(Nc3ccc(C4CCCCO4)cc3S(C)(=O)=O)cc(NC(=O)C3CC3)nc2[nH]1 (stereo not shown) [I-387, N-(2-methyl-7-((2-(methylsulfonyl)-4-(tetrahydro-2H-pyran-2-yl)phenyl)amino)-3H-imidazo[4,5-b]pyridin-5-yl)cyclopropanecarboxamide], which Kd is on record?
**A.** Its Kd is < 0.1 nM.

**Q.** Which Kd does the source give for Cc1nc2c(Nc3ccc(C4CCOC4)cc3S(C)(=O)=O)cc(NC(=O)C3CC3)nc2[nH]1 (stereo not shown) [I-388, N-(2-methyl-7-((2-(methylsulfonyl)-4-(tetrahydrofuran-3-yl)phenyl)amino)-3H-imidazo[4,5-b]pyridin-5-yl)cyclopropanecarboxamide] here?
**A.** Its Kd is 0.1 to 0.5 nM.

**Q.** For CS(=O)(=O)c1cc(C2CCOC2)ccc1Nc1cc(NC(=O)C2CC2)nc2[nH]c(C(F)F)nc12 (stereo not shown) [I-389, N-(2-(difluoromethyl)-7-((2-(methylsulfonyl)-4-(tetrahydrofuran-3-yl)phenyl)amino)-3H-imidazo[4,5-b]pyridin-5-yl)cyclopropanecarboxamide], which Kd is on record?
**A.** The Kd was 0.5 to 1 nM.

**Q.** With Cc1nc2c(Nc3ccc(C4CCCOC4)cc3S(C)(=O)=O)cc(NC(=O)C3CC3)nc2[nH]1 (stereo not shown) [I-390, N-(2-methyl-7-((2-(methylsulfonyl)-4-(tetrahydro-2H-pyran-3-yl)phenyl)amino)-3H-imidazo[4,5-b]pyridin-5-yl)cyclopropanecarboxamide] as the molecule, how does the Kd read?
**A.** Its Kd is 0.1 to 0.5 nM.

**Q.** With CS(=O)(=O)c1cc(C2CCCOC2)ccc1Nc1cc(NC(=O)C2CC2)nc2[nH]c(C(F)F)nc12 (stereo not shown) [I-391, N-(2-(difluoromethyl)-7-((2-(methylsulfonyl)-4-(tetrahydro-2H-pyran-3-yl)phenyl)amino)-3H-imidazo[4,5-b]pyridin-5-yl)cyclopropanecarboxamide] as the molecule, how does the Kd read?
**A.** The Kd was 0.1 to 0.5 nM.

**Q.** How did the Kd turn out when CS(=O)(=O)c1ccccc1Nc1cc(Nc2cc3c(nn2)CCC3)nc2[nH]c(C(F)F)nc12 [I-392] was run?
**A.** Its Kd is < 0.1 nM.

**Q.** For COCCCc1csc(-c2ccc(Nc3cc(NC(=O)C4CC4)nc4[nH]c(C(F)F)nc34)c(S(C)(=O)=O)c2)n1 [I-393], which Kd is on record?
**A.** Its Kd is 0.5 to 1 nM.

**Q.** For Cc1nc2c(Nc3ccc(-c4cnn(C)c4C)cc3S(C)(=O)=O)cc(Nc3ccc(C(C)C)c(C#N)n3)nc2[nH]1 [I-394], which Kd is on record?
**A.** The Kd was 0.1 to 0.5 nM.

**Q.** How did the Kd turn out when CN=[S@](C)(=O)c1ccccc1Nc1cc(NC(=O)C2CC2)nc2[nH]c(C(F)F)nc12 [I-395] was run?
**A.** Its Kd is 0.1 to 0.5 nM.

**Q.** CN=[S@@](C)(=O)c1ccccc1Nc1cc(NC(=O)C2CC2)nc2[nH]c(C(F)F)nc12 [I-396] was tested. Which Kd did it give?
**A.** The Kd was 1 to 10 nM.

**Q.** How did the Kd turn out when Cc1ncc(Nc2cc(Nc3ccc(C4CCCCO4)cc3S(C)(=O)=O)c3nc(C(F)F)[nH]c3n2)nc1C (stereo not shown) [I-397, 2-(difluoromethyl)-N5-(5,6-dimethylpyrazin-2-yl)-N7-(2-(methylsulfonyl)-4-(tetrahydro-2H-pyran-2-yl)phenyl)-3H-imidazo[4,5-b]pyridine-5,7-diamine] was run?
**A.** Its Kd is 0.1 to 0.5 nM.

**Q.** For Cc1nc2c(Nc3ccc(C4CCCCO4)cc3S(C)(=O)=O)cc(Nc3cnc(C)c(C)n3)nc2[nH]1 (stereo not shown) [I-398, N5-(5,6-dimethylpyrazin-2-yl)-2-methyl-N7-(2-(methylsulfonyl)-4-(tetrahydro-2H-pyran-2-yl)phenyl)-3H-imidazo[4,5-b]pyridine-5,7-diamine], which Kd is on record?
**A.** Its Kd is < 0.1 nM.

**Q.** How did the Kd turn out when CC1(C)CC(c2ccc(Nc3cc(NC(=O)C4CC4)nc4[nH]c(C(F)F)nc34)c(S(C)(=O)=O)c2)CC(C)(C)O1 [I-399] was run?
**A.** The Kd was > 10 nM.

**Q.** Which Kd does the source give for COC(C)c1ccc(Nc2cc(NC(=O)C3CC3)nc3[nH]c(C)nc23)c(S(C)(=O)=O)c1 (stereo not shown) [I-400, N-(7-((4-(1-methoxyethyl)-2-(methylsulfonyl)phenyl)amino)-2-methyl-3H-imidazo[4,5-b]pyridin-5-yl)cyclopropanecarboxamide] here?
**A.** Its Kd is 0.1 to 0.5 nM.

**Q.** CS(=O)(=O)c1cc(C2CCCCO2)ccc1Nc1cc(NC(=O)C2CC2)nc2[nH]c(C(F)F)nc12 (stereo not shown) [I-401, N-(2-(difluoromethyl)-7-((2-(methylsulfonyl)-4-(tetrahydro-2H-pyran-2-yl)phenyl)amino)-3H-imidazo[4,5-b]pyridin-5-yl)cyclopropanecarboxamide] was tested. Which Kd did it give?
**A.** The Kd was < 0.1 nM.

**Q.** COC(C)c1ccc(Nc2cc(NC(=O)C3CC3)nc3[nH]c(C(F)F)nc23)c(S(C)(=O)=O)c1 (stereo not shown) [I-402, N-(2-(difluoromethyl)-7-((4-(1-methoxyethyl)-2-(methylsulfonyl)phenyl)amino)-3H-imidazo[4,5-b]pyridin-5-yl)cyclopropanecarboxamide] was tested. Which Kd did it give?
**A.** Its Kd is 0.5 to 1 nM.

**Q.** How did the Kd turn out when COc1c(Nc2cc(Nc3ccc(NCCCCl)c(C#N)n3)nc3[nH]c(C)nc23)cccc1-c1nnn(C)n1 [I-403, 3-((3-chloropropyl)amino)-6-((7-((2-methoxy-3-(2-methyl-2H-tetrazol-5-yl)phenyl)amino)-2-methyl-3H-imidazo[4,5-b]pyridin-5-yl)amino)picolinonitrile] was run?
**A.** The Kd was 0.5 to 1 nM.

**Q.** With Cn1cncc1-c1ccc(Nc2cc(NC(=O)[C@H]3C[C@H]3F)nc3[nH]c(C(F)F)nc23)c(S(C)(=O)=O)c1 [I-405, (1R,2R)—N-(2-(difluoromethyl)-7-((4-(1-methyl-1H-imidazol-5-yl)-2-(methylsulfonyl)phenyl)amino)-3H-imidazo[4,5-b]pyridin-5-yl)-2-fluorocyclopropane-1-carboxamide] as the molecule, how does the Kd read?
**A.** The Kd was 0.1 to 0.5 nM.

**Q.** How did the Kd turn out when Cc1cn(C)nc1-c1ccc(Nc2cc(NC(=O)[C@@H]3C[C@@H]3F)nc3[nH]c(C(F)F)nc23)c(S(C)(=O)=O)c1 [I-406, (1 S,2S)—N-(2-(difluoromethyl)-7-((4-(1,4-dimethyl-1H-pyrazol-3-yl)-2-(methylsulfonyl)phenyl)amino)-3H-imidazo[4,5-b]pyridin-5-yl)-2-fluorocyclopropane-1-carboxamide] was run?
**A.** The Kd was < 0.1 nM.

**Q.** How did the Kd turn out when Cc1cn(C)nc1-c1ccc(Nc2cc(NC(=O)[C@H]3C[C@H]3F)nc3[nH]c(C(F)F)nc23)c(S(C)(=O)=O)c1 [I-407, (1R,2R)—N-(2-(difluoromethyl)-7-((4-(1,4-dimethyl-1H-pyrazol-3-yl)-2-(methylsulfonyl)phenyl)amino)-3H-imidazo[4,5-b]pyridin-5-yl)-2-fluorocyclopropane-1-carboxamide] was run?
**A.** Its Kd is 0.1 to 0.5 nM.

**Q.** Which Kd does the source give for CP(C)(=O)c1cc(C2CCOCC2)ccc1Nc1cc(NC(=O)C2CC2)nc2[nH]c(C(F)F)nc12 [I-408, N-(2-(difluoromethyl)-7-((2-(dimethylphosphoryl)-4-(tetrahydro-2H-pyran-4-yl)phenyl)amino)-3H-imidazo[4,5-b]pyridin-5-yl)cyclopropanecarboxamide] here?
**A.** The Kd was 0.5 to 1 nM.

**Q.** With CS(=O)(=O)c1cc(C2CC2)ccc1Nc1cc(Nc2cc3n(n2)CCCCC3)nc2[nH]c(C(F)F)nc12 [I-409, N7-(4-cyclopropyl-2-(methylsulfonyl)phenyl)-2-(difluoromethyl)-N5-(5,6,7,8-tetrahydro-4H-pyrazolo[1,5-a]azepin-2-yl)-3H-imidazo[4,5-b]pyridine-5,7-diamine] as the molecule, how does the Kd read?
**A.** Its Kd is 0.1 to 0.5 nM.
